# Legend:
# [1] = system: platelet rich plasma (PRP); assay: Effect of clopidogrel and aspirin on rHuEPO-induced platelet reactivity, ex vivo platelet aggregation; type: in vivo, male Wistar rats; conditions: for Effect on platelet aggregatory response in rHuEPO treated rats (in words): rHuEPO (25 μg/kg, S.C.) treated rats, clopidogrel 2.5 mg/kg p.o., aspirin 75 mg/kg p.o.; for % platelet aggregation: rHuEPO 25 μg/kg s.c., Clopidogrel 2.5 mg/kg p.o., Aspirin 75 mg/kg p.o.
# Description: (§1) Six to eight week old male Wistar rats used and the methods and procedures described here have been reviewed and approved by the Institutional Animal Ethics Committee (IAEC). Wistar male rats were divided in groups [each group containing 6 animals (n=6)]. Control animal received vehicle only (0.9% w/v NaCl normal saline), treatment groups received three consecutive doses of Recombinant Human Erythropoietin (25 and 50 μg/kg, s.c.) at an interval of 24 hour. Blood collection was performed at 48 hour after the last injection of Erythropoietin in citrated tubes. Platelet rich plasma (PRP) was separated. Determination of ex-vivo platelet aggregation was performed by using 1) ADP as aggregation inducing agent 2) Arachidonic acid as aggregation inducing agent 3) Thrombin as aggregation inducing agent and 4) Collagen as aggregation inducing agent. Platelet aggregation was performed by turbidometric method using high through put 96-well plate. Optical density was measured at 405 nm by Spectra Max plate reader. […] Increase in platelet aggregatory response meaning increase in platelet reactivity when same concentration of aggregating agent is used.
# Six to eight week old male Wistar rats were divided in groups [each group containing 6 animals (n=6)]. Control animal received vehicle only (0.9% w/v NaCl normal saline), treatment groups received three consecutive doses of Recombinant Human Erythropoietin (25 μg/kg, s.c.) at an interval of 24 hour. Aspirin (75 mg/kg p.o.), and Clopidogrel (2.5 mg/kg, p.o.) were dosed individually and in combination with each other to respective groups at 48 hour after the last injection of erythropoietin. Blood collection was performed after 2 hours of antiplatelet treatment. Platelet rich plasma (PRP) was separated. Determination of ex-vivo platelet aggregation was performed by using 1) ADP as aggregation inducing agent 2) Arachidonic acid as aggregation inducing agent 3) Thrombin as aggregation inducing agent and 4) Collagen as aggregation inducing agent.
# [2] = system: platelet rich plasma (PRP); assay: Effect of rHuEPO on platelet reactivity, ex vivo platelet aggregation (ADP, arachidonic acid, thrombin, collagen); type: in vivo, male Wistar rats; conditions: for % platelet aggregation: s.c. treated rats
# Description: as §1
# [3] = Bleeding time, tail transaction test; type: in vivo, male Wistar rats; conditions: rHuEPO 25 μg/kg s.c., Clopidogrel 2.5 mpk, Aspirin 75 mpk; Wistar rats
# Description: Six to eight week old male Wistar rats were divided in groups [each group containing 6 animals (n=6)]. Control animal received vehicle only (0.9% w/v NaCl normal saline), treatment groups received three consecutive doses of Recombinant Human Erythropoietin (25 μg/kg, S.C.) at an interval of 24 hour. Aspirin (75 mg/kg p.o.), and Clopidogrel (2.5 mg/kg, p.o.) individually and in combination with each other were dosed to respective groups at 48 hour after the last injection of Erythropoietin. Bleeding time experiment using tail transaction test was performed.
# [4] = system: platelet rich plasma (PRP); assay: Ex vivo ADP-induced platelet aggregation in 5/6 nephrectomized rats (chronic kidney disease model); design: species or system male Wistar rats; conditions: i.v. 3 times a week for 4 weeks; for Platelet aggregation (%) Average: 2.5 μM ADP, 5/6 nephrectomized rats, EPO 500 IU/kg, Clopi 10 mg/kg
# Excerpt: (§2) Six to eight week old male Wistar rats used and the methods and procedures described here have been reviewed and approved by the Institutional Animal Ethics Committee (IAEC). We used human therapeutic dose of rHuEPO in rats and same frequency of administration as in humans (Kirkeby A et al., Thromb Haemost, 2008; 99:720-728). A 5/6 nephrectomy has been performed on male wistar rats (Toba H et al., European Journal of Pharmacology 656, 2011, 81-87) and treatment has been started after one month of nephrectomy.
# (§3) The rats were divided into 5 groups (n=6): 1) a control group, which received a sham operation (SHAM control); 2) a 5/6 nephrectomized group (NPX), removed the upper and lower poles of the left kidney and after one week the entire right kidney under anesthesia (NPX vehicle); 3) a 5/6 nephrectomy+rHuEPO group, nephrectomized and injected with rHuEPO at 500 IU/kg 3 times a week intravenously (i.v.) for 4 weeks (NPX+EPO); 4) a 5/6 nephrectomized+rHuEPO+clopidogrel group, nephrectomized and administered with rHuEPO (500 IU/kg)+clopidogrel (10 mg/kg) every 3 times a week intravenously (i.v.) for 4 weeks. 5) a 5/6 nephrectomized+clopidogrel group, nephrectomized and administered with rHuEPO (500 IU/kg)+clopidogrel (10 mg/kg) every 3 times a week intravenously (i.v.) for 4 weeks.
# (§4) After 4 weeks of treatment, blood samples were collected via retro-orbital route in tubes containing 3.8% tri-sodium citrate for the collection of platelet rich plasma (PRP) for ADP-induced platelet aggregation studies. Blood samples were also collected for hematological analysis in tubes containing 5% EDTA. Serum samples were used for measurement of various kidney biomarkers such as creatinine, urea, uric acid, blood urea nitrogen and total protein.
# Increase in platelet aggregatory response meaning increase in platelet reactivity when same concentration of aggregating agent is used.
# [5] = Hematological parameters in 5/6 nephrectomized rats (chronic kidney disease model); type: in vivo, male Wistar rats; conditions: i.v. 3 times a week for 4 weeks; for Hematocrit (%) Average / Hemoglobin (g/dL) Average / RBC count (10^6/μL) Average: 5/6 nephrectomized rats, EPO 500 IU/kg, Clopi 10 mg/kg
# Excerpt: as §2, §3, §4
# [6] = Kidney biomarkers in serum of 5/6 nephrectomized rats (chronic kidney disease model); type: in vivo, male Wistar rats; conditions: i.v. 3 times a week for 4 weeks
# Excerpt: as §2, §3, §4
# There was increase in the serum creatinine, serum urea, serum uric acid, blood urea nitrogen and decrease in serum total protein in nephrectomized animals. […] There was improvement in the kidney function when combination of rHuEPO and antiplatelet agent has been given every 3 times a week intravenously (i.v.) for 4 weeks in nephrectomized rats (FIGS. 6a, 6b, 6c, 6d and 6e).
# [7] = 5/6 nephrectomized rats, EPO 500 IU/kg, Clopi 10 mg/kg
compound,measurement,setting,value
"CC(=O)Oc1ccccc1C(=O)O [Aspirin, reference compound]",Effect on platelet aggregatory response in rHuEPO treated rats (in words),[1],further normalizes the hyper reactive platelets
Recombinant Human Erythropoietin [rHuEPO],% platelet aggregation,"[2]; ADP (1.25 μM), rHuEPO 25 μg/kg, 3 doses, blood 48 h after last dose",59.1 ± 3.2%
same,% platelet aggregation,"[2]; ADP (1.25 μM), rHuEPO 50 μg/kg, 3 doses, blood 48 h after last dose",66.4 ± 4.5%
same,% platelet aggregation,"[2]; Arachidonic acid (150 μM), rHuEPO 25 μg/kg",50.6 ± 3.1%
same,% platelet aggregation,"[2]; Arachidonic acid (150 μM), rHuEPO 50 μg/kg",61.3 ± 3.4%
same,% platelet aggregation,"[2]; Collagen (0.25 μg/ml), rHuEPO 25 μg/kg",30.5 ± 2.0%
same,% platelet aggregation,"[2]; Collagen (0.25 μg/ml), rHuEPO 50 μg/kg",45.9 ± 3.2%
same,% platelet aggregation,"[2]; Collagen (0.5 μg/ml), rHuEPO 25 μg/kg",56.9 ± 1.7%
same,% platelet aggregation,"[2]; Collagen (0.5 μg/ml), rHuEPO 50 μg/kg",65.9 ± 1.7%
same,% platelet aggregation,"[2]; Thrombin (0.0125 IU/ml), rHuEPO 25 μg/kg",37.7 ± 3.0%
same,% platelet aggregation,"[2]; Thrombin (0.0125 IU/ml), rHuEPO 50 μg/kg",59.5 ± 4.4%
same,Effect on platelet aggregation (in words),"[2]; rHuEPO 25 and 50 μg/kg, s.c., constant concentration of aggregating agents",causes increase in platelet aggregation
same,% platelet aggregation,"[1]; ADP (1.25 μM), blood 2 h after antiplatelet treatment",59.5 ± 1.4%
same,% platelet aggregation,[1]; Arachidonic acid (150 μM),44.4 ± 2.5%
same,% platelet aggregation,[1]; Collagen (0.25 μg/ml),60.03 ± 1.9%
same,% platelet aggregation,[1]; Thrombin (0.025 IU/ml),70.8 ± 1.0%
same,Bleeding Time,[3],165 ± 28.1 s
same,Platelet aggregation (%) Average,[4],55%
same,Effect on platelet aggregatory response in nephrectomized rats (in words),"[4]; ADP, rHuEPO 500 IU/kg, clopidogrel 10 mg/kg",platelet aggregation increases
same,Hematocrit (%) Average,[5],62.3%
same,Hemoglobin (g/dL) Average,[5],20.4 g/dL
same,RBC count (10^6/μL) Average,[5],11.13 10^6/μL
same,Effect on hematological parameters (in words),[5]; nephrectomized rats,"increase in RBC count, hemoglobin and hematocrit"
same,Blood urea nitrogen mg/dL Average,[6]; [7],64.33 mg/dL
same,Serum creatinine mg/dL Average,[6]; [7],0.74 mg/dL
same,Serum urea mg/dL Average,[6]; [7],134.33 mg/dL
same,Serum uric acid mg/dL Average,[6]; [7],1.4 mg/dL
same,Total protein g/dL Average,[6]; [7],6.13 g/dL
same,Effect on kidney function / kidney biomarkers (in words),[6]; nephrectomized rats,"further increase in the serum creatinine, serum urea, serum uric acid, blood urea nitrogen"
"COC(=O)[C@H](c1ccccc1Cl)N1CCc2sccc2C1 [Clopidogrel, reference compound]",Effect on platelet aggregatory response in rHuEPO treated rats (in words),[1],platelet aggregatory response is normalized
same,Platelet aggregation (%) Average,[4],−2%
same,Hematocrit (%) Average,[5],46.07%
same,Hemoglobin (g/dL) Average,[5],14.77 g/dL
same,RBC count (10^6/μL) Average,[5],8.52 10^6/μL

# Source: patent US20130203668A1, “PHARMACEUTICAL COMPOSITION COMPRISING ANTIPLATELET AGENTS AND AN ERYTHROPOIESIS STIMULATING AGENT” (CADILA HEALTHCARE LIMITED, priority 2010, published 2013)
